According to patent publication US20190249166A1, “Antidote for Chondroitinase” (priority 2018, published 2019):

Key:
[1] = target: T1, chondroitinase ABC (Proteus vulgaris, UniProt P59807); test: Disc dissolution assay with bovine tail nucleus pulposus, absorbance at 232 nm; type: biochemical
T1 sequence (P59807 25-1021): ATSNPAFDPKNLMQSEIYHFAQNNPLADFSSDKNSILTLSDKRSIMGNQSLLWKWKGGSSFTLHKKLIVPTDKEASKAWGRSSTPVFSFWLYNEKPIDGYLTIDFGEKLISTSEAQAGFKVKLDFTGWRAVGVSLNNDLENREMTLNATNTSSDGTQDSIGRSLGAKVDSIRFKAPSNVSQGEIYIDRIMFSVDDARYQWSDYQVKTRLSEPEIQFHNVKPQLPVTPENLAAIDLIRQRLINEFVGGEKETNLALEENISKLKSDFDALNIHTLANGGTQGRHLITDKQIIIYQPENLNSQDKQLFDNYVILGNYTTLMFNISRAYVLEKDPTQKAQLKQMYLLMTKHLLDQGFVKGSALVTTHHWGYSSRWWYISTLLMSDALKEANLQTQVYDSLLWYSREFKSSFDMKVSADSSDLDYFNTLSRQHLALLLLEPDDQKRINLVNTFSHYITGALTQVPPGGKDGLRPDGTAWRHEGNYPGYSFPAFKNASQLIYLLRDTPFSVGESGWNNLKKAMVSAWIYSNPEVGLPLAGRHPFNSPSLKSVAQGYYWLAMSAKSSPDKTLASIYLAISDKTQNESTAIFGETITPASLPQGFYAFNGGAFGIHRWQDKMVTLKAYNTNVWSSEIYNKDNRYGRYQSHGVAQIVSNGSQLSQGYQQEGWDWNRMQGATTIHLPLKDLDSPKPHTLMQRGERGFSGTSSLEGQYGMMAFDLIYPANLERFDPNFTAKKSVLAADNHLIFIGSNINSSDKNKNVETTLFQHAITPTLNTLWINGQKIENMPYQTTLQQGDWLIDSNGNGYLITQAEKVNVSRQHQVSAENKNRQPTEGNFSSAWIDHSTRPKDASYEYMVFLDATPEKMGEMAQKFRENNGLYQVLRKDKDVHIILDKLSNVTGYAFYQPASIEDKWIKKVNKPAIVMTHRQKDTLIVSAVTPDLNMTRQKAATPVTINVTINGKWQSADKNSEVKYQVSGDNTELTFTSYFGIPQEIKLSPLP
Description: In the case of using chondroitinase as a chemonucleolysis agent, the site of injection is a gel-like nucleus pulposus which is dense with chondroitin sulfate, collagen, and the other extra-cellular matrix. To evaluate the effect of these matrices on the inhibition, a disc dissolution assay can be conducted. In the experiment, the nucleus pulposus, of which chondroitin sulfate is composed of 65% dry weight, are collected from bovine tails. […]
Introducing the non-substrate GAG, e.g. heparin, into the solution together with the chondroitinase, results in suppression of the release of chondroitin sulfate tetrasaccharide and/or disaccharide from the nucleus pulposus sample, is therefore a strong indication of the inhibitory and antidote effect on the enzyme. This inhibition of tetrasaccharide/disaccharide release is reflected by the reduction of the absorbance at 232 nm when compared with the buffer solution in the presence chondroitinase only. […]
In disc dissolution assay, 6 intervertebral discs were obtained from a bovine tail. […] The absorbance at 232 nm of each solution was measured at 0 hours, 5 hours, and 20 hours after the immersion of the nucleus pulposus. The increase in absorbance was predominantly due to the dissolution of the small-molecule-containing unsaturated carbon-carbon double bond from the nucleus pulposus. […]

[2] = test system: intervertebral disc; test: Disc height index (DHI) by Micro-CT after intradiscal injection in rabbits; type: in vivo, New Zealand rabbits; settings: for DHI, with heparin / effect on DHI reduction caused by chondroitinase ABC: 0.35 mg heparin
Description: Being used as an antidote, the non-substrate GAG of the present invention is effective in vivo. In the case of chemonucleolysis by chondroitinase ABC, the enzyme is injected into the nucleus pulposus for partial digestion. The effective antidote will be able to inhibit the activity of chondroitinase ABC intradiscally, as well as the reduction of the size of the intervertebral disc. […] When comparing to the control animal, for which the intervertebral disc is injected with Chondroitinase ABC only, the reduction of the disc height can only be observed in the control animal. The detailed experimental result is illustrated in Example 6.
New Zealand rabbits weighing 2.5-3.0 kg were divided into two groups: (1) injection of Chondroitinase ABC (0.05 U and 0.15 U) and heparin (0.35 mg); and (2) injection of chondroitinase ABC (0.05 U and 0.15 U). Before injection of chondroitinase ABC with or without heparin, rabbits were fixed in the dorsal position and anesthetized by 10% chloral hydrate (1 ml/kg). The intervertebral disc (IVD) was located by means of portable x-ray fluoroscope and the injection of the chondroitinase ABC with or without heparin was under fluoroscopic guidance. Rabbits were sacrificed just after the injection and 3 weeks after of injection for collecting the spine. The disc height index (DHI) analyzed by using LaTheta™ Micro-CT scanners (Hitachi-Aloka) at a resolution of 48 um (FIG. 7) and is listed in Table 2.

[3] = target: T1, chondroitinase ABC; test: Chondroitinase enzyme inhibition assay, absorbance at 232 nm with chondroitin sulfate C; type: biochemical; settings: 0.0125 mg/ml heparin; 0.01 U/ml chondroitinase ABC; 0.1 mg/ml chondroitin sulfate C; 37° C., 20 min
Description: Freeze-dried chondroitinase is reconstituted in 0.1-10 mg/ml BSA solution, preferably 1 mg/ml. The chondroitinase solution is serially diluted into a final concentration in the range of 0.065-0.35 U/ml, and more preferably 0.260-0.175 U/ml. Chondroitin sulfate C is dissolved in a buffer at pH 7.0-9.0, preferably at pH 8.0±0.1 with Tris-HCl, sodium phosphate, sodium acetate or sodium borate, preferably 10-250 mM, and more preferably 50 mM Tris-HCl as buffer. The final concentration of chondroitin sulfate C is at the range of 0.2-20 mg/ml. Chondroitinase solution and the chondroitin sulfate C solution are pre-incubated in 37° C. and mixed in a ratio of 1:50. The reaction mixture is further incubated for 20 min for allowing the enzymatic reaction proceeding. The absorbance of the reaction mixture is continuously monitored by spectrophotometer and the rate of the reaction is calculated by multiplying the slope of the absorbance-time curve with millimolar extinct coefficient of the reaction product at 232 nm (which is reported to be 5.5.). […]
2 mg/ml Chondroitin sulfate C solution was prepared by dissolving in buffer at pH 8.0 Tris-HCl (50 mM). […] The reaction mixture was further incubated at 37° C. for 20 min in spectrophotometer and the absorbance at 232 nm was continuously monitored. […] In FIG. 3, the absorbance of the solution without the presence of heparin at 232 nm increased linearly.

[4] = target: T1, chondroitinase ABC; test: Electrophoretic mobility shift assay (EMSA) of chondroitinase ABC and heparin; type: binding; settings: 20 μg chondroitinase ABC with 3.8 μg heparin (about 0.2 nmol each), room temperature 30 min
Description: Further experiments can be applied to show the direct interaction, or more precisely binding, between GAG and chondroitinase. One of the experimental methods that can show the direct interaction between non-substrate GAG and chondroitinase (without introducing other molecule, like the substrate) is the electrophoretic mobility shift (EMSA) assay.
The principle of EMSA is that the mobility of biomolecules under electrophoresis is affected by the size and charge of the biomolecule. […] The overall size will increase and the mobility is usually changed in the gel electrophoresis. In other words, a shift in the position of the biomolecule in the gel will be observed if there is binding between the biomolecules. For studying the interaction between chondroitinase and non-substrate GAG, EMSA is conducted as described. 5-30 μg chondroitinase is mixed with (a) 0.5 molar ratio, (b) equal molar, and (c) 2 folds molar excess of GAG, and incubated at room temperature for at least 20 min, and more preferred 30 min. These mixtures are loaded onto native polyacrylamide gel and subjected to electrophoresis for 2.5 hours at 100 V. Two identical gels are prepared but stained with different staining solution (Alcian blue for GAG, and Coomassie blue for chondroitinase). […]

[5] = target: T1, chondroitinase ABC; test: Time profile of inhibition of chondroitinase ABC by heparin, absorbance at 232 nm; type: biochemical
Description: In one embodiment, the inhibition of chondroitinase ABC by heparin could be at a particular time point during the enzymatic treatment, so that the enzymatic action can be precisely terminated. […] The enzymatic reaction in the mixture, which is the digestion of the chondroitin sulfate polymer into unsaturated oligosaccharide or disaccharide, can be monitored at 232 nm with incubation in 37° C. The reaction can be incubated for 5 hours and at 1.5 and 2.5 hours, with suitable concentrations of heparin including, but not limited to, 0.1-0.01 times the chondroitin sulfate, being introduced for evaluating the time response of the inhibition effect. Detailed experimental results are illustrated in example 5.
Chondroitin sulfate and chondroitinase ABC were introduced into 50 mM Tris HCl buffered solution (pH 7.6), to a final concentration of 1 mg/ml and 0.001 U/ml. […] At time of 0 hour, 1.5 hour, and 2.5 hour, 0.01 mg/ml heparin was introduced into the reaction mixture separately into 3 reaction mixture, where the remaining reaction mixture was sampled and monitored at the same time interval as the 3 reaction mixture with heparin introduction. The progress of the enzymatic reaction was monitored by measuring the absorbance at 232 nm of a sample taken from the reaction mixture every 30 min.

[6] = test system: intervertebral disc; test: Disc height index (DHI) by Micro-CT after intradiscal injection in rabbits; type: in vivo, New Zealand rabbits; settings: IVD injected with 0.05 U and 0.15 U chondroitinase ABC only

| Substance | absorbance at 232 nm of solution (disc dissolution) ([1]; 1U/ml chondroitinase ABC and 1 mg/ml heparin in PBS with 10 mM sodium lactate, 0, 5, 20 hours) | DHI, with heparin ([2]; 0 day after injection, 0.05 U chondroitinase ABC) | DHI, with heparin ([2]; 0 day after injection, 0.15 U chondroitinase ABC) | effect on DHI reduction caused by chondroitinase ABC ([2]; 0.05 U chondroitinase ABC) | effect on DHI reduction caused by chondroitinase ABC ([2]; 0.15 U chondroitinase ABC) | DHI, with heparin ([2]; 3 weeks after injection, 0.05 U chondroitinase ABC) | DHI, with heparin ([2]; 3 weeks after injection, 0.15 U chondroitinase ABC) | inhibition of enzymatic reaction of chondroitinase (absorbance at 232 nm) [3] | binding to chondroitinase ABC (EMSA, Alcian Blue stain) [4] | rate of increase in absorbance at 232 nm of the reaction mixture ([5]; 0.01 mg/ml heparin introduced at 0, 1.5 or 2.5 hour, 1 mg/ml chondroitin sulfate, 0.001 U/ml chondroitinase ABC, 37° C., 5 hours) | persistence of inhibition of the enzymatic reaction ([5]; 0.01 mg/ml heparin, throughout the 5 hours reaction period) | effect on DHI [6] | absorbance at 232 nm of solution (disc dissolution) ([1]; 1U/ml chondroitinase ABC without heparin, compared with PBS and sodium lactate) | DHI, without heparin ([2]; 0.05 U chondroitinase ABC only) | DHI, without heparin ([2]; 0.15 U chondroitinase ABC only) | DHI, without heparin ([2]; 3 weeks after injection, 0.05 U chondroitinase ABC only) | DHI, without heparin ([2]; 3 weeks after injection, 0.15 U chondroitinase ABC only) |
| --- | --- | --- | --- | --- | --- | --- | --- | --- | --- | --- | --- | --- | --- | --- | --- | --- | --- |
| heparin | significantly reduced the absorbance | 0.081 | 0.085 | significantly inhibited the DHI reduction | inhibited the DHI reduction but the inhibitory effect was not as significant as at the lower concentration | 0.082 | 0.066 | completely inhibited | binds tightly to the enzyme | significantly reduced | remains stable and constant | – | – | – | – | – | – |
| Chondroitinase ABC | – | – | – | – | – | – | – | – | – | – | – | significantly reduction of DHI | the absorbance increased remarkably | 0.082 | 0.071 | 0.044 | 0.048 |
